Data on eight compounds can be found in PMC7160362, “A Polyamine-Based Dinitro-Naphthalimide Conjugate as Substrates for Polyamine Transporters Preferentially Accumulates in Cancer Cells and Minimizes Side Effects in vitro and in vivo” (Frontiers in Chemistry, 2020).

One may read the IC50 as the concentration at which inhibition is half-maximal.

Like-named read-outs stand apart in the source and are kept apart here. Bounds are passed on as bounds.

Assay [1] deals with MCF-7 cells (breast carcinoma). The assay can be described thus: MTT cytotoxicity assay. The assay is classed as cell-based. Particulars: MTT, 48 h. On the procedure: (§1) We incubated hepatic carcinoma (Snu-368 and Snu-739), breast carcinoma (MDA-MB-231 and MCF-7), cisplatin-sensitive lung cancer cells A549, and cisplatin-resistant lung cancer cells A549cisR in 96-well plates in a 5% CO2 atmosphere at 37°C for 24 h (5,000 cells/well). After adding drugs in freshly prepared culture medium (100 μl) and incubating for another 48 h, we added 20 μl MTT (5 mg/ml) and incubated for another 3 h. At last, after the medium was removed, 150 μl DMSO was added. By using a Bio-Rad 680 microplate reader, the absorbance was measured at 570 nm and the IC50 values were calculated using the GraphPad Prism software based on three parallel experiments.
(§2) In vitro assays were firstly conducted to evaluate the inhibitory effect of polyamine-based naphthalimide conjugates 5a-5c, 7a-7b, and 11a-11b on six cancer cell lines, namely, Snu-368 and Sun-739 (hepatoma cell line), MCF-7 (breast carcinoma), MDA-MB-231 (triple negative breast cancer), cisplatin-sensitive lung cancer A549, and resistant A549cisR cells by using traditional MTT tests. Two classic antitumor agents in clinic trials, amonafide and cisplatin, were chosen as the reference drugs (Table 1). The preliminary structure–activity relationship (SAR) can be obtained from the in vitro biological results.

The test system of assay [2] is MDA-MB-231 cells (triple negative breast cancer). Briefly: MTT cytotoxicity assay. The assay is classed as cell-based. Particulars: MTT, 48 h. On the procedure:
as §1, §2
(Tetrazolium assays rely on reduction of a dye to a coloured formazan, in cell work by metabolically active cells.)

Assay [3] deals with Snu-368 cells (hepatic carcinoma). Briefly: MTT cytotoxicity assay. The assay is classed as cell-based. As to conditions: MTT, 48 h. On the procedure: as §1, §2
The test system of assay [4] is Snu-739 cells (hepatic carcinoma). Briefly: MTT cytotoxicity assay. The assay is classed as cell-based. Particulars: MTT, 48 h. On the procedure: as §1, §2
Assay [5] has as its system cisplatin-resistant lung cancer cells A549cisR. Briefly: MTT cytotoxicity assay. The assay is classed as cell-based. As to conditions: for RF (resistance factor): IC50 in A549cisR cells/IC50 in A549 cells; for IC50: MTT, 48 h. On the procedure:
as §1, §2

Assay [6] concerns cisplatin-sensitive lung cancer cells A549. The assay can be described thus: MTT cytotoxicity assay. Particulars: MTT, 48 h. The assay is classed as cell-based. On the procedure: as §1, §2
For assay [7], the system named is HL-7702 (normal liver cell). The assay can be described thus: MTT cytotoxicity on matched normal cells. The assay is classed as cell-based. As to conditions: for SI (selectivity index), range over Snu-368 and Snu-739: HL-7702 versus Snu-368 and Snu-739. On the procedure:
as §1
The selectivity for cancer cells over normal healthy cells is important for ideal anticancer agents, thereby mitigating undesired toxic side effects associated with chemotherapy. The selectivity of polyamine-based dinitro-naphthalimide conjugates 5a-5c was evaluated by Snu-368 and Snu-739 (hepatic carcinoma), and the matched normal cells HL-7702 (normal liver cell). Moreover, dinitro-naphthalimide conjugates 5a-5c (SI 1.94–7.47) show lower cytotoxicity in normal cells.

Assay [8] relates to HCC xenografts. Briefly: In vivo antitumor assay, HCC xenografts. Particulars: 5 mg/kg, tail vein, once every day for 7 days. The text has this:
Healthy BALB/c mice (Cat. SCXK 2016-0006, Beijing, China) aged 5 weeks were used for the determination of anticancer activity. We obtained BALB/c mice from the Laboratory Animal Center, Academy of Military Medical Science. They were raised in compliance with the Guide for the Care and Use of Laboratory Animals. The weight of healthy BALB/c mice is 18–22 g.
We firstly injected HCC cells with 1 × 10^6 cells per mouse to determine the anticancer activity. After a week, the tumors increased to 80–120 mm^3. The mice were divided into four groups for 5c (3 mg/kg), 5c (5 mg/kg), the positive control amonafide (5 mg/kg), or the negative control physiological saline. We injected 5c or amonafide via the tail vein every day for a total of seven treatments. Body weight was determined every day. And then the mice were sacrificed after 7 days. The tumor tissues were weighed and the inhibition rate [((average tumor weight of negative control group – average tumor weight of the drug treated or positive control group)/average tumor weight of control group) × 100] was calculated. The organ index [(organ weight/body weight) × 100%] was also counted including heart, liver, kidney, lung, and spleen at the last day. Both 5c and amonafide were dissolved in glucose injection. And they were used immediately after preparation.
The highest FI levels in Snu-739 also indicate a significant therapy for HCC. Therefore, HCC animal models were used to test the in vivo antitumor activities. Mice bearing HCC xenografts were treated with 5c (3 mg/kg), 5c (5 mg/kg), the positive control amonafide (5 mg/kg), and normal saline (negative control) once every day for 7 days by tail vein (Figure 3).

The mark [9] stands for this setting: Homo sapiens, L02, read-out: IC50 HL-7702.

Consider `O=C1c2cc([N+](=O)[O-])cc3cc([N+](=O)[O-])cc(c23)C(=O)N1CCCCNCCCNC1CCCCC1` [5a], for which the IC50 in assay [1] (Homo sapiens, MCF7) was found to be 2.3 ± 0.18 µM; in assay [2] (Homo sapiens, MDA-MB-231) it was 1.19 ± 0.12 µM; in assay [3] it was 2.94 ± 0.06 µM; in assay [4] (SNU-739), 2.16 ± 0.1 µM; in assay [5], 3.62 ± 0.15 µM; in assay [6] (Homo sapiens, A549), 2.17 ± 0.2 µM. For the same compound, in assay [7] (setting [9]), the IC50 came out at 6.3 ± 0.23 µM. Besides, the “RF (resistance factor)” value in assay [5] is on record as 1.67. Besides, the “SI (selectivity index) IC50 in HL-7702/IC50 in Snu-368” value in assay [7] is 2.14. Further, in assay [7], the “SI (selectivity index) IC50 in HL-7702/IC50 in Snu-739” value was determined as 2.92.

Regarding `O=C1c2cc([N+](=O)[O-])cc3cc([N+](=O)[O-])cc(c23)C(=O)N1CCCCNCCCCNC1CCCCC1` [5b], the IC50 in assay [1] (Homo sapiens, MCF7) worked out at 1.25 ± 0.1 µM; in assay [2] (Homo sapiens, MDA-MB-231), 1.07 ± 0.1 µM; in assay [3], 2.72 ± 0.25 µM; in assay [4] (SNU-739) it was 3.89 ± 0.35 µM; in assay [5], 2.27 ± 0.25 µM; in assay [6] (Homo sapiens, A549), 1.75 ± 0.15 µM. Besides, in assay [7] (setting [9]), the IC50 was determined as 7.56 ± 0.43 µM. For the same compound, the “RF (resistance factor)” value in assay [5] is recorded as 1.30. Also, in assay [7], the “SI (selectivity index) IC50 in HL-7702/IC50 in Snu-368” value stood at 2.78. For the same compound, the “SI (selectivity index) IC50 in HL-7702/IC50 in Snu-739” value in assay [7] came to 1.94.

`Nc1cc2c3c(cc(N)cc3c1)C(=O)N(CCCCNCCCNC1CC1)C2=O` [7a]: the IC50 is 8.62 ± 0.85 µM in assay [1] (Homo sapiens, MCF7); 26.9 ± 2.65 µM in assay [2] (Homo sapiens, MDA-MB-231); over 30 µM in assay [3]; 25.8 ± 2.9 µM in assay [4] (SNU-739); 17.4 ± 1.68 µM in assay [5]; 14 ± 1.39 µM in assay [6] (Homo sapiens, A549).

Turning to `NCCCCNCCCCN1C(=O)c2cc(N)cc3cc(N)cc(c23)C1=O` [7b], the IC50 in assay [1] (Homo sapiens, MCF7) was over 30 µM; in assay [2] (Homo sapiens, MDA-MB-231), over 30 µM; in assay [3], over 30 µM; in assay [4] (SNU-739), over 30 µM; in assay [5], 17.3 ± 1.78 µM; in assay [6] (Homo sapiens, A549), over 30 µM.

For `NCCCNCCCNCCCN1C(=O)c2cc(N)cc3cc(N)cc(c23)C1=O` [11a], the IC50 in assay [1] (Homo sapiens, MCF7) is 14.8 ± 1.45 µM; in assay [2] (Homo sapiens, MDA-MB-231), 26 ± 2.56 µM; in assay [3], over 50 µM; in assay [4] (SNU-739) it was 9.69 ± 0.98 µM; in assay [5], 16.3 ± 1.69 µM; in assay [6] (Homo sapiens, A549), 28.3 ± 2.85 µM.

Turning to `NCCCNCCCCNCCCN1C(=O)c2cc(N)cc3cc(N)cc(c23)C1=O` [11b], the IC50 in assay [1] (Homo sapiens, MCF7) was 25.9 ± 2.56 µM; in assay [2] (Homo sapiens, MDA-MB-231), over 30 µM; in assay [3], over 30 µM; in assay [4] (SNU-739), 23.2 ± 2.36 µM; in assay [5], 15.8 ± 1.58 µM; in assay [6] (Homo sapiens, A549), over 30 µM.

With `CN(C)CCN1C(=O)c2cccc3cc(N)cc(c23)C1=O` [Amonafide, amonafide, reference compound], the IC50 in assay [1] (Homo sapiens, MCF7) was found to be 5.89 ± 0.56 µM; in assay [2] (Homo sapiens, MDA-MB-231) it was 14.9 ± 1.75 µM; in assay [3] it was 14 ± 1.78 µM; in assay [4] (SNU-739), 13 ± 1.56 µM; in assay [5], 11 ± 1.02 µM; in assay [6] (Homo sapiens, A549) it was 6.89 ± 0.68 µM. In addition, in assay [7] (Homo sapiens, L02, normal liver cell, read-out: IC50 HL-7702), the IC50 is 11.6 ± 1.36 µM. In addition, the “RF (resistance factor)” value in assay [5] is listed as 1.59. Also, in assay [7], the “SI (selectivity index) IC50 in HL-7702/IC50 in Snu-368” value was determined as 0.83. Further, the “SI (selectivity index) IC50 in HL-7702/IC50 in Snu-739” value in assay [7] is on record as 0.89. Moreover, the “SI (selectivity index), range over Snu-368 and Snu-739” value in assay [7] was 0.83–0.89. Also, in assay [8], the “tumor suppression (inhibition rate, tumor weight)” value is reported as 53.27%.

`N.N.[Cl][Pt][Cl]` [Cisplatin, cisplatin, reference compound]: the concentration for half-maximal inhibition (IC50) in assay [1] came to 9.6 ± 0.6 µM; in assay [2] it was 16 ± 1.59 µM; in assay [3], 16.4 ± 1.26 µM; in assay [4] it was 10 ± 1.23 µM; in assay [5] it was 40.4 ± 4.36 µM; in assay [6], 11 ± 0.15 µM. The IC50 in assay [7] (normal liver cell, read-out: IC50 HL-7702) was determined as 8.6 ± 0.2 µM. The “RF (resistance factor)” value in assay [5] came out at 3.67. In assay [7], the “SI (selectivity index) IC50 in HL-7702/IC50 in Snu-368” value came out at 0.53. Besides, the “SI (selectivity index) IC50 in HL-7702/IC50 in Snu-739” value in assay [7] is on record as 0.86. Also, in assay [7], the “SI (selectivity index), range over Snu-368 and Snu-739” value was 0.53–0.86.
